Test results taken from ChEMBL document CHEMBL1125011, “Potential antimitotic agents. Synthesis of some ethyl benzopyrazin-7-ylcarbamates, ethyl pyrido[3,4-b]pyrazin-7-ylcarbamates, and ethyl pyrido[3,4-e]-as-triazin-7-ylcarbamates” (J Med Chem, 1990).

Experiments:
L1210 [1] = assay: (§1) Concentration that causes a mitotic index of 0.5 for cultured lymphoid leukemia L1210 cells was determined; format: functional, Mus musculus
L1210 [2] = assay: Concentration required to inhibit 50% proliferation of cultured lymphoid leukemia L1210 cells was measured; format: functional, cell-based; conditions: Mus musculus
[3] = as §1; format: functional, Mus musculus

Compound	MI0.5 (L1210 [1])	IC50 (L1210 [2])	MI0.5 [3]
CCOC(=O)c1cc(N)c2c(c1)NCC(c1ccccc1)=N2	>10 µM	> 100 µM	
CCOC(=O)Nc1cc2nc(O)c(-c3ccccc3)nc2c(N)n1	0.022 µM	0.042 µM	
CCOC(=O)Nc1cc2nnc(-c3ccccc3)nc2c(N)n1		> 10 µM	
COC(=O)Nc1cc(N)c2nc(-c3ccccc3)c(O)nc2c1		0.75 µM	1.9 µM
COC(=O)Nc1cc(N)c2nc(-c3ccccc3)cnc2c1		> 100 µM	
CCOC(=O)Nc1cc2ncc(-c3ccccc3)nc2c(N)n1		0.3 µM	
COC(=O)Nc1cc(N)c2c(c1)NCC(c1ccccc1)=N2		24 µM	
CCOC(=O)c1cc(N)c2nc(-c3ccccc3)cnc2c1	>10 µM	> 100 µM	
CCOC(=O)Nc1cc2c(c(N)n1)NC(c1ccccc1)=NN2		> 10 µM	
CCOC(=O)Nc1cc2nc(N)c(-c3ccccc3)nc2c(N)n1		> 30 µM	
CCOC(=O)Nc1cc2c(c(N)n1)N=C(c1ccccc1)CN2			0.0028 µM
